Test results: PMC7700221, “Antiproliferative Homoleptic and Heteroleptic Phosphino Silver(I) Complexes: Effect of Ligand Combination on Their Biological Mechanism of Action” (Molecules, 2020)
Like-named read-outs stand apart in the source and are kept apart here.

Tests used:
[1] = biological target: human TrxR1 (Homo sapiens, UniProt Q16881); details: isolated human TrxR1
[2] = test system: TrxR; details: 2008 cells, 18 h, 2.5 µM
Method: TrxR inhibition was also evaluated in 2008 cells treated for 18 h with equimolar concentrations (2.5 µM) of all phosphino silver(I) derivatives and of AgNO3.
The 2008 cells were incubated for 18 h with tested compounds. Subsequently, cells were washed twice with Phosphate Buffer Solution (PBS) and lysed. TrxR activity was tested by measuring NADPH-dependent reduction of DTNB and glutathione peroxidase (GPx) activity was followed at 340 nm.

[3] = test system: caspase-3; details: 2008 cells, IC50, 24 or 48 h
Method: (§1) The 2008 cells (1 × 10^6) were treated for 24 h with the IC50 doses of tested compounds, harvested and homogenized in a lysis buffer [1% Triton X-100, 320 nM sucrose, 5 mM EDTA, 10 mM Tris–HCl and 2 mM DTT (1,4-dithio-DL-threitol) buffer (pH 7.6)]. Protein aliquots (100 μg) were stained at 37 °C for 60 min with fluorescent caspase-3 (N-Acetyl-Asp-Glu-Val-Asp-AMC, AMC = 7-amino-4-methylcoumarin) or caspase-9 (Ac-Leu-Glu-His-Asp-AMC) substrate (Sigma Co.). Substrate hydrolysis was measured after 60 min by monitoring the release of AMC using a spectrofluorometer (excitation at 370 nm, emission at 460 nm).
(§2) Effect of silver(I) compounds on caspase-3 and -9 activation. […] Data are the means of at least three independent experiments. Error bars indicate SD.

[4] = test system: CT-DNA
Method: From the observed spectra, KSV was calculated according to the classical Stern–Volmer equation (Figure S16B).
The UV–Vis absorption spectroscopic studies and the DNA binding experiments were performed at
Experiments were performed by maintaining a fixed CT-DNA concentration (30
Sample solutions were scanned in the range
200−500 nm on a computer-controlled Varian Coulter DU 800 spectrophotometer.
EB–DNA competition experiments
The ethidium bromide (EB) displacement experiments were performed by titration with aliquots of
tested compounds of a Tris buffer solution containing 10 μM DNA (8.0–15 kbp) and 0.33 μM EB
(saturated binding levels). The fluorescence spectrum of the solution was obtained by exciting at 520
nm and measuring the emission spectra at 587 nm.
determined from the slope of the diagram F0/F versus r.

[5] = test system: 2008 cells; details: 24 h or 48 h
Method: The 2008 cells (2 × 10^5) were seeded in a six-well plate in growth medium (4 mL). After 24 h, cells were incubated for 24 h with increasing concentrations of tested compounds. Subsequently, the thiol content was measured as previously described [43].
(A) Sulfhydryl content in 2008-treated cancer cells incubated for 24 h or 48 h with tested silver(I) compounds. The sulfhydryl group amount was determined by the DTNB assay.

[6] = test system: HCT-15 colon cancer cells; details: for times more effective than cisplatin, HCT-15: HCT-15 cells, 72 h MTT, versus cisplatin
[7] = test system: caspase-9; details: 2008 cells, IC50 concentration, 24 h
caspase-9, sequence (P55211 whole entry): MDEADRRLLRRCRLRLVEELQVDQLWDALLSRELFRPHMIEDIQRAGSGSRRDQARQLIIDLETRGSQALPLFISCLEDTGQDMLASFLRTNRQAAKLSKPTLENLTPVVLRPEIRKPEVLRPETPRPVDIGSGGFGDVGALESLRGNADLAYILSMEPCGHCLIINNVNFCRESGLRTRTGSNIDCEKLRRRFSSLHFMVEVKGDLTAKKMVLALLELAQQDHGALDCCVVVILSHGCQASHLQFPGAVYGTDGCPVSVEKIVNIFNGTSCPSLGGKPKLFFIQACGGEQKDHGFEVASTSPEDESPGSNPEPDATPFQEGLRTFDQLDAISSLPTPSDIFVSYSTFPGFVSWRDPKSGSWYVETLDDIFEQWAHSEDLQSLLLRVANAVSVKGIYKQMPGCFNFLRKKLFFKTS
Method: as §1, §2

[8] = test system: 2008 cells; details: IC50 of compounds
Method: The production of ROS was measured in 2008 cells (10^4 per well) grown for 24 h in a 96-well plate in RPMI medium without phenol red (Sigma Chemical Co.). Cells were then washed with PBS and loaded with 10 μM 5-(and-6)-chloromethyl-2′,7′-dichlorodihydrofluorescein diacetate acetyl ester (CM–H2DCFDA) (Molecular Probes-Invitrogen, Eugene, OR) for 25 min, in the dark. Afterwards, cells were washed with PBS and incubated with increasing concentrations of tested compounds. Fluorescence increase was estimated utilizing the wavelengths of 485 nm (excitation) and 527 nm (emission) in a Fluoroskan Ascent FL (Labsystems, Finland) plate reader.
Error bars indicate S.D. (B) effect of silver(I) compounds on hydrogen peroxide formation in 2008 cells. 2008 cells were pre-incubated in PBS/10 mM glucose medium for 20 min at 37 °C in presence of 10 µM CM-DCFDA and then treated with IC50 of silver(I) compounds.

[9] = test system: 2008 cells (cellular DNA fragmentation); details: 6 h
Method: About 4 × 10^4 2008 cells were seeded in 25 cm^2 flasks in growth medium (6 mL). After 24 h, cells were incubated for 3h with 2.5µM of tested compounds. Cells were washed twice with cold PBS, harvested, centrifuged, and DNA fragmentation was measured by the alkaline comet assay. Low melting point agarose, 300 μL (Trevigen Inc., Gaithersburg, MD, USA) was heated to 37 °C and combined with 2 × 10^5 cells per mL cell suspension. Each well of a 20-well CometSlide was filled with 30 μL of the cell/agarose suspension. The slides were placed in a 4 °C refrigerator in the dark for 15 min to solidify. Slides were then immersed in 50 mL of pre-chilled lysis solution containing Trizma base, Triton X-100, DMSO and left at 4 °C for 30 min to facilitate cell membrane and histone removal. After draining excess liquid, the slides were transferred to 50 mL of freshly prepared (same day) alkaline DNA unwinding solution, (200 mmol/L NaOH, 1 mmol/L EDTA, pH > 13) and incubated at room temperature in the dark for 20 min. After the unwinding step, electrophoresis was performed at 21 V for 30 min. Slides were then rinsed with distilled water and fixed 5 min in 70% ethanol. Slides were dried and stained 5 min at 4 °C with SYBR Green I (Trevigen, Inc.) diluted 1:10000 in 10 mmol/L Tris pH 7.5, 1 mmol/L EDTA, drained to remove excess staining solution and thoroughly dried at room temperature in the dark. Micrographs were taken with a Zeiss LSM-800 confocal microscope (Zeiss, Oberkochen, Germany).

[10] = test system: 2008 cells; details: IC50 concentrations, 24 or 48 h
Method: In particular, 2008 cells were treated for 24 or 48 h with IC50 concentrations of tested Ag(I) complexes, and the percentage of cells with hypopolarized mitochondrial membrane potential was determined fluorimetrically by means of the Mito-ID® Membrane Potential Kit.
The ΔΨ was assayed using the Mito-ID® Membrane Potential Kit according to the manufacturer’s instructions (Enzo Life Sciences, Farmingdale, NY). Briefly, 2008 cells (8 × 10^3 per well) were seeded in 96-well plates; after 24 h, cells were washed with PBS and loaded with Mito-ID Detection Reagent for 30 min at 37 °C in the dark. Afterwards, cells were incubated with increasing concentrations of tested complexes. Fluorescence intensity was estimated using a plate reader (Fluoroskan Ascent FL, Labsystems, Finland) at 490 (excitation) and 590 nm (emission). Carbonyl cyanide m-chlorophenyl hydrazone (CCCP, 4 μM), a chemical inhibitor of the oxidative phosphorylation, was used as positive control.
2008 cells were treated for 24 h or 48 h with IC50 concentrations of tested complexes or CCCP (3 μM). The percentage of cells with hypopolarized mitochondrial membrane potential was determined by Mito-ID® Membrane Potential Kit. Data are the means of three independent experiments. Error bars indicate S.D.

[11] = test system: 2008 cells; details: 48 h, IC50 concentrations
Method: About 10^6 2008 cells were seeded in 24-well plates and, after 24 h incubation, were treated with the tested compounds and incubated for additional 24 h. Cells were then washed with cold PBS, harvested and directly fixed with 1.5% glutaraldehyde buffer with 0.2 M sodium cacodylate, pH 7.4. After washing with buffer and postfixation with 1% OsO4 in 0.2 M cacodylate buffer, specimens were dehydrated and embedded in epoxy resin (Epon Araldite). Sagittal serial sections (1 μm) were counterstained with toluidine blue; thin sections (90 nm) were given contrast by staining with uranyl acetate and lead citrate. Micrographs were taken with a Hitachi H-600 electron microscope (Hitachi, Tokyo, Japan) operating at 75 kV.

[12] = test system: A431 cervical carcinoma cells; details: read-out: IC50 (µM) ± S.D. A431; 72 h, MTT test
[13] = test system: A549 lung cancer cells; details: read-out: IC50 (µM) ± S.D. A549; 72 h, MTT test
[14] = test system: C13* cisplatin-resistant ovarian cancer cells
[15] = test system: BxPC3 pancreatic cancer cells; details: read-out: IC50 (µM) ± S.D. BxPC3; 72 h, MTT test
[16] = test system: 2008 ovarian cancer cells; details: read-out: IC50 (µM) ± D.S. 2008; 72 h, MTT test, cisplatin-sensitive cells
[17] = test system: A375 melanoma cells; details: read-out: IC50 (µM) ± S.D. A375; 72 h, MTT test
[18] = test system: human cancer cell line panel; details: read-out: average IC50; average over the six cancer cell lines, 72 h MTT
[19] = test system: MCF-7 breast cancer cells; details: read-out: IC50 (µM) ± S.D. MCF-7; 72 h, MTT test
[20] = test system: A431 cervical carcinoma cells; assay: cells; details: Homo sapiens, A-431, 72 h, read-out: IC50 (µM) ± S.D. A431
[21] = test system: A375 melanoma cells; assay: cells; details: Homo sapiens, A-375, 72 h, read-out: IC50 (µM) ± S.D. A375
[22] = test system: BxPC3 pancreatic cancer cells; assay: cells; details: Homo sapiens, BXPC-3, 72 h, read-out: IC50 (µM) ± S.D. BxPC3
[23] = test system: MCF-7 breast cancer cells; assay: cells; details: Homo sapiens, MCF7, 72 h, read-out: IC50 (µM) ± S.D. MCF-7
[24] = test system: A549 lung cancer cells; assay: cells; details: Homo sapiens, A549, 72 h, read-out: IC50 (µM) ± S.D. A549
[25] = test system: HCT-15 colon cancer cells; assay: cells; details: Homo sapiens, HCT-15, 72 h, read-out: IC50 (µM) ± S.D. HCT-15

human TrxR1, sequence (Q16881 151-649 limits assumed): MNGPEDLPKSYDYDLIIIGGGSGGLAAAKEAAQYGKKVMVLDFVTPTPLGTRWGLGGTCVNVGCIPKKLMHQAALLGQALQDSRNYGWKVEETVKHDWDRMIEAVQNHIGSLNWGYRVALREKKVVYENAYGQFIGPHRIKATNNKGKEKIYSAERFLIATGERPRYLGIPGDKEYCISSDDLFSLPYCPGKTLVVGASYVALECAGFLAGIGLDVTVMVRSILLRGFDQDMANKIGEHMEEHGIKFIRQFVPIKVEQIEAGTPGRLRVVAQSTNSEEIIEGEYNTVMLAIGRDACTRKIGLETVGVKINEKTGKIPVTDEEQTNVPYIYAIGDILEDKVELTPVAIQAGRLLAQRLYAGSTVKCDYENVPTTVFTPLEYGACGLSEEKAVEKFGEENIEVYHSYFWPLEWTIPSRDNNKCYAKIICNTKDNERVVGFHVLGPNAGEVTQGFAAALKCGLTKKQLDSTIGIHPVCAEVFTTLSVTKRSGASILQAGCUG

Row | Molecule | reduction of total cellular TrxR activity [2] | times more effective than cisplatin, HCT-15 [6] | IC50 [20] [µM] | IC50 [21] [µM] | IC50 [22] [µM] | IC50 [23] [µM] | IC50 [24] [µM] | IC50 [25] [µM] | also measured
1 | AgNO3 | 12% |  |  |  |  |  |  |  | TrxR1 inhibition, in words [1]: effective in inhibiting the redox enzyme activity at nanomolar level
2 | [HB(pz)3]Ag(PPh3) [Compound 5] | about 75% | about 7 fold |  |  |  |  |  |  | caspase-3 activation [3]: time-dependent activation of caspase-3; modification of DNA absorption bands [4]: slight hyperchromic effect at 263 nm; cellular sulfhydryl content [5]: lowest levels of cellular sulfhydryl groups; enhancement in caspase-9 activity compared to control cells [7]: 3.3 fold; basal ROS / hydrogen peroxide production [8]: increase in basal hydrogen peroxide formation rather similar to that obtained with antimycin; increase of well-formed comets ([9]; IC50 dose): about 69%; cells with hypopolarized mitochondrial membrane potential [10]: increase in the percentage of hypopolarized cells similar to that induced by reference compound carbonyl cyanide-m-chlorophenylhydrazone (CCCP); mitochondrial morphology by TEM [11]: mitochondria with disrupted cristae and a significant increase in volume (swelling)
3 | Cisplatin |  |  |  |  |  |  |  |  | IC50 [12]: 2.1 ± 0.4 µM; IC50 [13]: 8.4 ± 0.9 µM; RF ([14]; RF = IC50 resistant/IC50 parental cell lines (C13*/2008)): 9.5; IC50 ([14]; read-out: IC50 (µM) ± D.S. C13*, 72 h, MTT test, cisplatin-resistant cells): 21.5 ± 3 µM; IC50 [15]: 10.2 ± 1.7 µM; IC50 ([6]; read-out: IC50 (µM) ± S.D. HCT-15, 72 h, MTT test): 15.5 ± 2.5 µM; IC50 [16]: 2.3 ± 1.1 µM; IC50 [17]: 4 ± 1 µM; IC50 [18]: 7.9 µM; IC50 [19]: 7.6 ± 3 µM
4 | [Ag(PCN)2]BF4 [Compound 9] | about 70% | roughly 4.4 fold |  |  |  |  |  |  | 
5 | c1ccc(P(c2ccccc2)c2ccccc2)cc1 [PPh3, triphenylphosphine] |  |  | 47.5 ± 1.1 | 52.3 ± 2.5 | 62.2 ± 2.2 | 34.2 ± 3.4 | 30.1 ± 2.1 | 54.1 ± 4.2 | DNA damage in comet assay, in words [9]: scarcely effective in increasing comet tail lengths
6 | C1N2CN3CN1CP(C2)C3 [PTA, 1,3,5-triaza-7-phosphaadamantane] |  |  | > 100 | > 100 | > 100 | > 100 | > 100 | > 100 | 
7 | [Ag(PPh3)4]BF4 [Compound 10] | about 75% | roughly 4.4 fold |  |  |  |  |  |  | caspase-3 activation [3]: time-dependent activation of caspase-3; modification of DNA absorption bands [4]: no significant modifications in DNA properties; cellular sulfhydryl content [5]: lowest levels of cellular sulfhydryl groups; enhancement in caspase-9 activity compared to control cells [7]: 2.6 fold; basal ROS / hydrogen peroxide production [8]: increase in basal hydrogen peroxide formation rather similar to that obtained with antimycin; DNA damage in comet assay, in words [9]: barely effective in provoking DNA damage; cells with hypopolarized mitochondrial membrane potential [10]: increase in the percentage of hypopolarized cells similar to that induced by reference compound carbonyl cyanide-m-chlorophenylhydrazone (CCCP); mitochondrial morphology by TEM [11]: mitochondria with disrupted cristae and a significant increase in volume (swelling)
8 | N#CCCP(CCC#N)CCC#N [PCN, tris(cyanoethyl)phosphine] |  |  | > 100 | > 100 | > 100 | > 100 | > 100 | > 100 | 
9 | O=S1(=O)N2CN3CN1CP(C3)C2 [PTA-SO2] |  |  | 56 ± 3.5 | > 100 | > 100 | 69.5 ± 3.4 | > 100 | > 100 | 
10 | CC(=O)N1CN2CN(C(C)=O)CP(C2)C1 [DAPTA, 3,7-diacetyl-1,3,7-triaza-5-phosphabicyclo [3.3.1]nonane] |  |  | > 100 | > 100 | 89.5 ± 4.1 | 85.3 ± 4 | > 100 | 67.1 ± 3.1 | 
